Test results from US20260325487A1 (BS BIOTECHNA SPOLKA AKCYJNA, priority 2023, published 2026).
Read-outs that look alike come from different tables or passages of the source.

Key:
Type in all cases: cell-based
NCI-H520 = assay: SRB anti-proliferative assay, NCI-H520, with CalcuSyn combination index (Example 1); details: Homo sapiens, NCI-H520, 72 h, read-out: Zah. (inhibition of proliferation)
Experimental: (§1) Cells were thawed from ampoules stored in liquid nitrogen and cultured in petri dishes in appropriate culture medium according to Table 2, in a humidified 5% CO2 atmosphere at 37° C. Cells were passaged twice weekly using EDTA-Trypsin solution, pH 8. Counted cells with a viability of at least 90% as assessed with Trypan-Blue solution were used for anti-proliferative assays.
(§2) Twenty-four hours before the addition of the test compounds/combinations, cells were seeded into 384-well plates at 50 μL/well and a density of 10^3 cells/well, in the appropriate culture medium.
(§3) Solutions of the compounds were diluted in the test medium-RPMI-1640 and Opti-MEM in a 1:1 ratio, and the medium was supplemented with 2 mM glutamine and 5% fetal bovine serum FBS. After 72 h, colourimetric assessment of cell growth was performed by SRB. […] Unbound dye was removed by washing the plates (4×) in 1% (v/v) acetic acid, and protein-bound dye was extracted with 10 mM unbuffered Tris base and the optical density (A=540 nm) was determined in a BioTek Synergy H4 Hybrid computer microplate reader (BioTek Instruments USA). The entire washing/staining procedure was performed using a BioTek EL406 washing station (BioTek Instruments USA). The raw absorbance results were analysed in Microsoft Excel software using the formula:
(§4) [formula] • Where: • % Zahlnh-inhibition of proliferation • Am—absorbance of wells without cells (medium) • Ak—absorbance of control wells (cells treated with pure culture medium) • Ap—absorbance of wells treated with compounds
(§5) Each compound at the indicated concentrations was tested in triplicate in one experiment. Each experiment was repeated three times. Data analysis was supplemented with synergy assessment using CalcuSyn software. […] A CI value below 0.8 indicates synergism, 0.8-1.2 an additive effect, above 1.2 an antagonism.

SK-MES-1 = assay: SRB anti-proliferative assay, SK-MES-1, with CalcuSyn combination index (Example 1); details: Homo sapiens, SK-MES-1, 72 h, read-out: Zah. (inhibition of proliferation)
Experimental: as §1, §2, §3, §4, §5

8MGBA = assay: SRB anti-proliferative assay, 8MGBA, molecular combination and nanoparticles, with combination index (Example III); details: Homo sapiens, 8-MG-BA, 72 h
Experimental: Cells were thawed from ampoules stored in liquid nitrogen and cultured in petri dishes in the appropriate culture medium according to Table 16, in a humidified 5% CO2 atmosphere at 37° C. Cells were passaged twice weekly using EDTA-Trypsin solution, pH 8, as a separating agent. Counted cells with a viability of at least 90% as assessed with Trypan-Blue solution were used for anti-proliferation assays.
Twenty-four hours before the addition of the test compounds/combinations, cells were seeded into 384-well plates at 50 μL/well and a density of 10^3 cells/well, in the appropriate culture medium. […] Solutions of the compounds were diluted in the test medium—RPMI-1640 and Opti-MEM in a 1:1 ratio, and the medium was supplemented with 2 mM glutamine and 5% fetal bovine serum FBS.
as §3, with “After” for “Solutions of the compounds were diluted in the test medium-RPMI-1640 and Opti-MEM in a 1:1 ratio, and the medium was supplemented with 2 mM glutamine and 5% fetal bovine serum FBS. After”
as §4, §5

NCI-H226 = assay: SRB anti-proliferative assay, NCI-H226, with CalcuSyn combination index (Example 1); details: Homo sapiens, NCI-H226, 72 h, read-out: Zah. (inhibition of proliferation)
Experimental: as §1, §2, §3, §4, §5

LUDLU-1 = assay: SRB anti-proliferative assay, LUDLU-1, with CalcuSyn combination index (Example 1); details: Homo sapiens, LUDLU-1, 72 h, read-out: Zah. (inhibition of proliferation)
Experimental: as §1, §2, §3, §4, §5

C=CCNC1=C2C[C@@H](C)C[C@H](OC)[C@H](O)[C@@H](C)/C=C(\C)[C@H](OC(N)=O)[C@@H](OC)/C=C\C=C(/C)C(=O)NC(=CC1=O)C2=O [17AAG, 17-AAG (tanespimycin)]
inhibition at 0.0031 µM (NCI-H520): 5.9% | inhibition at 0.01 µM (NCI-H520): 15.3% | inhibition at 0.03 µM (NCI-H520): 28.3% | inhibition at 0.1 µM (NCI-H520): 48.1% | inhibition at 0.3124 µM (NCI-H520): 56.8% | inhibition at 1 µM (NCI-H520): 59.9% | inhibition at 3.1392 µM (NCI-H520): 63.5% | inhibition at 10 µM (NCI-H520): 65.8% | inhibition at 0.0031 µM (SK-MES-1): 9.2% | inhibition at 0.01 µM (SK-MES-1): 12.7% | inhibition at 0.03 µM (SK-MES-1): 55.1% | inhibition at 0.1 µM (SK-MES-1): 80% | inhibition at 0.3124 µM (SK-MES-1): 85.2% | inhibition at 1 µM (SK-MES-1): 86.5% | inhibition at 3.1392 µM (SK-MES-1): 86.9% | inhibition at 10 µM (SK-MES-1): 87% | inhibition at 0.0003163 µM (8MGBA; read-out: Zah. (inhibition of proliferation), 17AAG 0.3163 nM, Tables 18a/19a): -3.9% | inhibition at 0.0003163 µM (8MGBA; read-out: Zah. (inhibition of proliferation), 17AAG 0.3163 nM, Tables 21a/22a): 6% | inhibition at 0.001 µM (8MGBA; read-out: Zah. (inhibition of proliferation), 17AAG 1 nM, Tables 18a/19a): 9.8% | inhibition at 0.001 µM (8MGBA; read-out: Zah. (inhibition of proliferation), 17AAG 1 nM, Tables 21a/22a): 15.7% | inhibition at 0.0032 µM (8MGBA; read-out: Zah. (inhibition of proliferation), 17AAG 3.2 nM, Tables 18a/19a): 64.9% | inhibition at 0.0032 µM (8MGBA; read-out: Zah. (inhibition of proliferation), 17AAG 3.2 nM, Tables 21a/22a): 4.7% | inhibition at 0.01 µM (8MGBA; read-out: Zah. (inhibition of proliferation), 17AAG 10 nM, Tables 18a/19a): 89.5% | inhibition at 0.01 µM (8MGBA; read-out: Zah. (inhibition of proliferation), 17AAG 10 nM, Tables 21a/22a): 7.8% | inhibition at 0.0316 µM (8MGBA; read-out: Zah. (inhibition of proliferation), 17AAG 31.6 nM, Tables 18a/19a): 88.5% | inhibition at 0.0316 µM (8MGBA; read-out: Zah. (inhibition of proliferation), 17AAG 31.6 nM, Tables 21a/22a): 20.1% | inhibition at 0.1 µM (8MGBA; read-out: Zah. (inhibition of proliferation), 17AAG 100 nM, Tables 18a/19a): 84.3% | inhibition at 0.1 µM (8MGBA; read-out: Zah. (inhibition of proliferation), 17AAG 100 nM, Tables 21a/22a): 37.4% | inhibition at 0.3163 µM (8MGBA; read-out: Zah. (inhibition of proliferation), 17AAG 316.3 nM, Tables 18a/19a): 86% | inhibition at 0.3163 µM (8MGBA; read-out: Zah. (inhibition of proliferation), 17AAG 316.3 nM, Tables 21a/22a): 64.6% | inhibition at 1 µM (8MGBA; read-out: Zah. (inhibition of proliferation), 17AAG 1000 nM, Tables 18a/19a): 91.9% | inhibition at 1 µM (8MGBA; read-out: Zah. (inhibition of proliferation), 17AAG 1000 nM, Tables 21a/22a): 81.1% | inhibition at 0.0003163 µM (8MGBA; read-out: Zah. (inhibition of proliferation), 72 h, 17AAG 0.3163 nM): -3.9% | inhibition at 0.001 µM (8MGBA; read-out: Zah. (inhibition of proliferation), 72 h, 17AAG 1 nM): 9.8% | inhibition at 0.0032 µM (8MGBA; read-out: Zah. (inhibition of proliferation), 72 h, 17AAG 3.2 nM): 64.9% | inhibition at 0.01 µM (8MGBA; read-out: Zah. (inhibition of proliferation), 72 h, 17AAG 10 nM): 89.5% | inhibition at 0.0316 µM (8MGBA; read-out: Zah. (inhibition of proliferation), 72 h, 17AAG 31.6 nM): 88.5% | inhibition at 0.1 µM (8MGBA; read-out: Zah. (inhibition of proliferation), 72 h, 17AAG 100 nM): 84.3% | inhibition at 0.3163 µM (8MGBA; read-out: Zah. (inhibition of proliferation), 72 h, 17AAG 316.3 nM): 86% | inhibition at 1 µM (8MGBA; read-out: Zah. (inhibition of proliferation), 72 h, 17AAG 1000 nM): 91.9% | inhibition at 0.0031 µM (NCI-H226): 19.3% | inhibition at 0.01 µM (NCI-H226): 27.3% | inhibition at 0.03 µM (NCI-H226): 32% | inhibition at 0.1 µM (NCI-H226): 43.8% | inhibition at 0.3124 µM (NCI-H226): 54.8% | inhibition at 1 µM (NCI-H226): 60.4% | inhibition at 3.1392 µM (NCI-H226): 71.9% | inhibition at 10 µM (NCI-H226): 72.6% | inhibition at 0.0031 µM (LUDLU-1): 6.1% | inhibition at 0.01 µM (LUDLU-1): 20.4% | inhibition at 0.0314 µM (LUDLU-1): 47.8% | inhibition at 0.1 µM (LUDLU-1): 66.9% | inhibition at 0.3139 µM (LUDLU-1): 74.1% | inhibition at 1 µM (LUDLU-1): 78.6% | inhibition at 3.1546 µM (LUDLU-1): 83.3% | inhibition at 10 µM (LUDLU-1): 86.3%
